# Target: T1, Mycothiol S-conjugate amidase (Mycobacterium tuberculosis, UniProt P9WJN1)
# T1 sequence (P9WJN1 whole entry): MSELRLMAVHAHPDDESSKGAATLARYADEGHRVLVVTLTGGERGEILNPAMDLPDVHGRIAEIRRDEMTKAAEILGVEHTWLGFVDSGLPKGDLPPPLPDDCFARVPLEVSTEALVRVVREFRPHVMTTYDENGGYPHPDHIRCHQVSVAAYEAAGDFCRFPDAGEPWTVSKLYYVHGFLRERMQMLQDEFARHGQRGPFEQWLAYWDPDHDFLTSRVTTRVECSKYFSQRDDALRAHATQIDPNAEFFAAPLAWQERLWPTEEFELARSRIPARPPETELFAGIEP
# Assay: Inhibition of Mycothiol -S-conjugate amidase (MCA) from mycobacterium tuberculosis
row,Compound,IC50 [µM]
1,COC1=C(Br)[C@@H](O)[C@]2(C=C1Br)CC(C(=O)NCCc1[nH]c(N)nc1-c1cc(O)c3ncc(O)c(O)c3c1O)=NO2,2
2,COC1=C(Br)C[C@]2(C=C1Br)CC(C(=O)NCCc1c[nH]c(N)n1)=NO2,100
3,O=C(NCCSSc1ccc(F)cc1)/C(Cc1ccc(O)c(Cl)c1)=N\O,37
4,COC1=C(Br)C[C@]2(OC=C1Br)ON=C(C(=O)NCCOc1c(Br)cc(CCN)cc1Br)[C@@H]2O,20
5,CC(=O)N[C@H](CS)C(=O)NC1C(OC2C(O)C(O)C(O)C(O)C2O)OC(CO)C(O)C1O (stereo partly specified),~1
6,O=C(NCCSSCCNC(=O)/C(Cc1ccc(O)c(Br)c1)=N/O)/C(Cc1ccc(O)c(Br)c1)=N/O [PSAMMAPLIN A],2.8
7,COC1=C(Br)C[C@]2(OC=C1Br)ON=C(C(=O)NCCOc1c(Br)cc(C(O)CN)cc1Br)[C@@H]2O (stereo partly specified),26
8,N=C(N)CCCCNC(=O)/C(Cc1cc(Br)c(OCCCN)c(Br)c1)=N/O,2.8
9,Nc1ccc(SSCCNC(=O)/C(Cc2cc(F)cc(F)c2)=N\O)cc1,450
10,O=C(NCCSSc1ccc(F)cc1)/C(Cc1cc(F)cc(F)c1)=N\O,2720
11,Nc1ccc(SSCCNC(=O)/C(Cc2ccc(O)c(Cl)c2)=N\O)cc1,35
12,O=C(NCCSSc1ccc(F)cc1)/C(Cc1cccc(Br)c1)=N\O,90
13,Nc1ccc(SSCCNC(=O)/C(Cc2cccc(Br)c2)=N\O)cc1,185
14,CC(=O)N[C@H](CSCc1c(C)c(=O)n2c(=O)c(C)c(C)n12)C(=O)NC1C(OC2C(O)C(O)C(O)C(O)C2O)OC(CO)C(O)C1O (stereo partly specified) [MYCOTHIOL BIMANE],~1
15,Cc1cccc(C)c1SSCCNC(=O)/C(Cc1cccc(Br)c1)=N/O,65
16,NCCCOc1c(Br)cc(C/C(=N\O)C(=O)NCCc2c[nH]c(N)n2)cc1Br,36

# From ChEMBL document CHEMBL1135313, “Bromotyrosine-derived natural and synthetic products as inhibitors of mycothiol-S-conjugate amidase” (Bioorg Med Chem Lett, 2002)
